This is an account of results in patent publication US20160129077A1, “Use of recombinant ganoderma immunoregulatory protein (rLZ-8) in preparation of drug for treating melanoma” (priority 2013, published 2016).

Where two headings read alike, the source gives them in different places. Marks after values point to notes of the source that are not given here.

For one data set, the system named is B16-F10 lung metastases. Description: B16-F10 melanoma lung metastasis model (tail vein injection) in Kunming mice. Format: in vivo. As to conditions: DTIC 2.5 mg/kg. From the text:
DMEM, fetal bovine serum, PBS, trypsin-EDTA, DMSO, Tris-HCl buffer with pH 7.6 for rinsing, 0.05% trypsin, rLZ-8, and DTIC.
After the mice were put to death, lungs of the dead mice were dissected out and the number of black spots on surfaces of the lungs, formed by an aggregation of metastasis cell, was counted, so as to calculate the inhibition rate of the drug against the growth of the lung metastasis as: inhibition rate=(an average metastasis number of the negative contrast group−an average metastasis number of the drug administrated group)/the average metastasis number of the negative contrast group×100%. A time and the number of the dead mouse in each experiment group were recorded in detail, especially during administrating the drug continuously, until the negative contrast group was completely dead; and then, the survival states of the mice in the experiment groups and the contrast groups were analyzed. A survival rate was calculated according to the number of the dead mice in the other groups when all the mice of the negative contrast group were dead, based on a formula that survival rate=(a total number of the mice−the number of the dead mice)/the total number of the mice.

The next data set deals with metastatic melanoma. As to conditions: immune therapy; cited from earlier work.
The mark [1] stands for this setting: DTIC 2.5 mg/kg tail i.v., administration for 28 days.
[2] abbreviates: DTIC 2.5 mg/kg, administration for 56 days.
[3] abbreviates: DTIC 2.5 mg/kg, dead mice/animal number.

Protocol for B16F10 orthotopic tumor: The mice were transplanted with a melanoma cells line B16-F10.
The mice melanoma cells B16-F10 were cultured in the DMEM containing 10% fetal bovine serum, at 37° C. in the CO2 thermostat incubator. 200 μl of B16-F10 cell suspension (containing 1×10^7 cells) was slowly subcutaneously injected into a dorsal-ventral side of the mouse through 1 ml syringe, so as to establish a model of mice transplanted with tumors. […] The rLZ-8 was injected once per day; the DTIC was continuously tail-intravenously injected for 5 days and injected for a second time after 3 weeks. During the experiment, living states of the mice were observed; the mice were weighed once every 7 days; blood samples were taken from tail veins of the mice every 2 weeks; volumes of the tumors, subcutaneously injected into the mice, were measured every 2 days; for each group, the tumors were dissected at an end of the experiment and weighed on the balance, with weights recorded. According to a formula that a tumor growth inhibition rate=(an average weight of the tumors of the physiological saline group−an average weight of the tumors of the drug administrated groups)/the average weight of the tumors of the physiological saline group, the inhibition rate of the rLZ-8 upon the growth of the orthotopic tumor was calculated.

Regarding `CN(C)/N=N/c1[nH]cnc1C(N)=O` [DTIC, Dacarbazine, reference compound], the “Survival rate when all mice of the negative contrast group were dead” value in the data set on B16-F10 lung metastases (87th / 95th day after injecting the tumors) is given as 10%. In addition, in the data set on B16-F10 lung metastases (administration for 28 days), the “Tumor metastases inhibition rate” value was found to be 32.04±1.27%. Moreover, the “Tumor metastases inhibition rate” value in the data set on B16-F10 lung metastases (administration for 56 days) is 58.43 ± 3.21%. Moreover, in the data set with B16F10 orthotopic tumor (setting [1]), the Tumor volume is reported as 0.19 ± 0.09** mm^3 and the Tumor weight is 0.23 ± 0.12 g. The “Tumor growth inhibition rate” value in the data set on B16F10 orthotopic tumor (DTIC 2.5 mg/kg, administration for 28 days) was 81.26 ± 0.27^ %. Further, in the data set with B16F10 orthotopic tumor (setting [2]), the “Tumor growth inhibition rate” value was 64.42 ± 0.41^ %, the Tumor volume is 0.73 ± 0.21* mm^3 and the Tumor weight is recorded as 0.87 ± 0.26 g. In addition, in the data set on B16F10 orthotopic tumor (setting [3]), the “Mortality rate (administration for 28 days)” value is on record as 0/10 and the “Mortality rate (administration for 56 days)” value is recorded as 4/10. The Body leukocyte number entry in the data set on B16F10 orthotopic tumor (tumor-bearing mice, tail vein blood, anti-tumor treatment experiment (28/56 days)) was “greatly decreased the body leukocyte number”.
Take “ipilimumab: anti-CTLA-4 antibody, immune therapy for metastatic melanoma”: the Positive reaction rate result with metastatic melanoma is “about 10.9%”.
